According to ChEMBL document CHEMBL5321293, “Discovery of ERD-3111 as a Potent and Orally Efficacious Estrogen Receptor PROTAC Degrader with Strong Antitumor Activity” (J Med Chem, 2023):

Assays:
[1] = Drug concentration in tumor of CB17 SCID mouse xenografted with human MCF7 cells harboring ESR1 Y537S mutant at 30 mg/kg, po qd for 3 days and measured after 6 hrs last dose by LC-MS/MS analysis; type: ADME, organism-based, Neoplasm; settings: time 3 day, read-out: Ct
[2] = Oral bioavailability in ICR mouse at 3 mg/kg and measured upto 24 hrs by LC-MS/MS analysis; type: ADME, organism-based; settings: in vivo
[3] = target: Protein cereblon/Estrogen receptor (Homo sapiens, UniProt P03372+Q96SW2); test: Protac activity at human ERalpha in human T47D cells assessed as reduction in ERalpha protein level at 0.1 to 100 nM by Western blot analysis; type: cell-based; settings: dose 0.1-100 nM
[4] = Downregulation of ERalpha protein expression in tumor of CB17 SCID mouse xenografted with human MCF7 cells harboring ESR1 D538G mutant at 10 mg/kg, po qd for 3 days and measured after 6 hrs last dose by Western blot analysis relative to control; type: functional; settings: time 3 day
MCF7 [5] = test: Antitumor activity against human MCF7 cells harboring ESR1 D538G mutant xenografted in CB17 SCID mouse assessed as tumor growth inhibition at 30 mg/kg, po qd for 4 weeks; type: functional; settings: MCF7, 672 h, read-out: TGI
[6] = Drug concentration in tumor of CB17 SCID mouse xenografted with human MCF7 cells harboring wild type ESR1 at 30 mg/kg, po qd for 3 days and measured after 24 hrs last dose by LC-MS/MS analysis; type: ADME, organism-based, Neoplasm; settings: time 3 day, read-out: Ct
[7] = Half life in Beagle dog at 1 mg/kg, po and measured upto 24 hrs by LC-MS/MS analysis; type: ADME, organism-based, Canis lupus familiaris; settings: in vivo
in vivo = settings: Sprague-Dawley, rat, po, 3 mg/kg
[8] = Volume of distribution at steady state in Sprague-Dawley rat at 1 mg/kg, iv and measured upto 24 hrs by LC-MS/MS analysis; settings: in vivo
[9] = Drug concentration in plasma of CB17 SCID mouse xenografted with human MCF7 cells harboring wild type ESR1 at 10 mg/kg, po qd for 3 days and measured after 6 hrs last dose by LC-MS/MS analysis; type: ADME, organism-based; settings: time 3 day
[10] = Cmax in ICR mouse at 3 mg/kg, po and measured upto 24 hrs by LC-MS/MS analysis; type: ADME, organism-based; set-up: dose 3 mg/kg, time < 24 hrs, route po; settings: in vivo
[11] = Oral bioavailability in Beagle dog at 1 mg/kg and measured upto 24 hrs by LC-MS/MS analysis; type: ADME, organism-based, Canis lupus familiaris; settings: in vivo
[12] = Half life in ICR mouse at 3 mg/kg, po and measured upto 24 hrs by LC-MS/MS analysis; type: ADME, organism-based; settings: in vivo
MCF7 [13] = test: Antitumor activity against human MCF7 cells harboring ESR1 Y537S mutant xenografted in CB17 SCID mouse assessed as tumor growth inhibition at 10 mg/kg, po qd for 4 weeks; type: functional; settings: MCF7, 672 h, read-out: TGI
Cytochrome P450 3A4 = Cytochrome P450 3A4 (Homo sapiens, UniProt P08684); test: Inhibition of CYP3A4 in human liver microsomes using testosterone as substrate preincubated for 5 mins followed by NADPH addition and measured after 10 mins by LC-MS/MS analysis; type: ADME, Microsome
[14] = Toxicity in CB17 SCID mouse xenografted with human MCF7 cells harboring ESR1 Y537S mutant assessed as body weight change at 30 mg/kg,po qd for 4 weeks; type: organism-based; settings: in vivo, 672 h
MCF7 [15] = test: Antitumor activity against human MCF7 cells harboring ESR1 D538G mutant xenografted in CB17 SCID mouse assessed as tumor growth inhibition at 10 mg/kg, po qd for 4 weeks; type: functional; settings: MCF7, 672 h, read-out: TGI
[16] = Drug concentration in plasma of CB17 SCID mouse xenografted with human MCF7 cells harboring ESR1 Y537S mutant at 10 mg/kg, po qd for 3 days and measured after 6 hrs last dose by LC-MS/MS analysis; type: ADME, organism-based; settings: time 3 day
[17] = Volume of distribution at steady state in Beagle dog at 0.5 mg/kg, iv and measured upto 24 hrs by LC-MS/MS analysis; type: ADME, organism-based, Canis lupus familiaris; settings: in vivo, read-out: Vdss
MCF7 [18] = test: Antitumor activity against human MCF7 cells harboring wild type ESR1 xenografted in CB17 SCID mouse assessed as tumor growth inhibition at 30 mg/kg, po qd for 5 weeks and measured 3 weeks post last dose; type: functional; settings: MCF7, 840 h, read-out: TGI
MCF7 [19] = test: Antitumor activity against human MCF7 cells harboring ESR1 Y537S mutant xenografted in CB17 SCID mouse assessed as tumor growth inhibition at 30 mg/kg, po qd for 4 weeks and measured 30 days post last dose; type: functional; settings: MCF7, 672 h, read-out: TGI
[20] = Downregulation of ERalpha protein expression in tumor of CB17 SCID mouse xenografted with human MCF7 cells harboring ESR1 Y537S mutant at 10 mg/kg, po qd for 3 days and measured after 6 hrs last dose by Western blot analysis relative to control; type: functional; settings: time 3 day
[21] = Clearance in Sprague-Dawley rat at 1 mg/kg, iv and measured upto 24 hrs by LC-MS/MS analysis; settings: in vivo
[22] = AUC in ICR mouse at 3 mg/kg, po and measured upto 24 hrs by LC-MS/MS analysis; type: ADME, organism-based; set-up: dose 3 mg/kg, time < 24 hrs, route po; settings: in vivo
[23] = Clearance in ICR mouse at 1 mg/kg, iv and measured upto 24 hrs by LC-MS/MS analysis; type: ADME, organism-based; settings: in vivo
[24] = Metabolic stability in rat liver microsomes assessed as half life at 1 uM and measured upto 60 mins in presence of NADPH by LC-MS/MS analysis; type: ADME, Microsome
MCF7 [25] = test: Antitumor activity against human MCF7 cells harboring wild type ESR1 xenografted in CB17 SCID mouse assessed as tumor growth inhibition at 30 mg/kg, po qd for 5 weeks; type: functional; settings: MCF7, 840 h, read-out: TGI
Cytochrome P450 1A2 = target: T1, Cytochrome P450 1A2 (Homo sapiens, UniProt P05177); test: Inhibition of CYP1A2 in human liver microsomes preincubated for 5 mins in presence substrate followed by NADPH addition and measured after 10 mins by LC-MS/MS analysis; type: ADME, Microsome
T1 sequence (P05177 whole entry): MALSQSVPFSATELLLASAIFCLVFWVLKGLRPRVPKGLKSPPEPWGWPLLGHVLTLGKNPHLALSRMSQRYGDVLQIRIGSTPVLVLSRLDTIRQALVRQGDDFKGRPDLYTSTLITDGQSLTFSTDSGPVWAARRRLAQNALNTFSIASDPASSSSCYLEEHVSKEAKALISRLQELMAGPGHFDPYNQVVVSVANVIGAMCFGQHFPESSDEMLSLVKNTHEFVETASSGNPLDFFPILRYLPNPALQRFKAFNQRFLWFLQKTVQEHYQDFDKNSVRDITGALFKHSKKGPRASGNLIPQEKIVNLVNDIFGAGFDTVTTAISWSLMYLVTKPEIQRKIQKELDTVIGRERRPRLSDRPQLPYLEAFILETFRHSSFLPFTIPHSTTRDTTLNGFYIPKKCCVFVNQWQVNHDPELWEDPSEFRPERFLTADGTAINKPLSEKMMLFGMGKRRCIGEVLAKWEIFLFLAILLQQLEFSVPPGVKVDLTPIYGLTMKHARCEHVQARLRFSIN

[26] = Downregulation of ERalpha protein expression in tumor of CB17 SCID mouse xenografted with human MCF7 cells harboring wild type ESR1 at 30 mg/kg, po qd for 3 days and measured after 6 hrs last dose by Western blot analysis relative to control; type: functional; settings: time 3 day

Chain of Protein cereblon/Estrogen receptor (P03372 whole entry, looked up): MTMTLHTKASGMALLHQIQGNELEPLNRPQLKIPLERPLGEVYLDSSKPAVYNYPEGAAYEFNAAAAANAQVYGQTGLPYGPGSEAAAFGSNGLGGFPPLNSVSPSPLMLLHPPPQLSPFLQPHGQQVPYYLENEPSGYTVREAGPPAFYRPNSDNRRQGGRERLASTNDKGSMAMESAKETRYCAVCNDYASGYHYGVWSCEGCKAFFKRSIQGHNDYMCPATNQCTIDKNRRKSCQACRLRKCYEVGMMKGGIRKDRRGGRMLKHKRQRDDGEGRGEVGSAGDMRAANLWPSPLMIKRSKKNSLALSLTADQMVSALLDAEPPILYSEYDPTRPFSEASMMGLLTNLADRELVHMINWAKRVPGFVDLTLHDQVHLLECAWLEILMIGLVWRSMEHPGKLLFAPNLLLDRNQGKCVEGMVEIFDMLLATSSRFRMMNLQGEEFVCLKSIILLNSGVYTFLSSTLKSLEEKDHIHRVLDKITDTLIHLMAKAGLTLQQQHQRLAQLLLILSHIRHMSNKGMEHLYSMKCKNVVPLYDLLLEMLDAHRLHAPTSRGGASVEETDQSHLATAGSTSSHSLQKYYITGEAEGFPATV
Chain of Protein cereblon/Estrogen receptor (Q96SW2 whole entry, looked up): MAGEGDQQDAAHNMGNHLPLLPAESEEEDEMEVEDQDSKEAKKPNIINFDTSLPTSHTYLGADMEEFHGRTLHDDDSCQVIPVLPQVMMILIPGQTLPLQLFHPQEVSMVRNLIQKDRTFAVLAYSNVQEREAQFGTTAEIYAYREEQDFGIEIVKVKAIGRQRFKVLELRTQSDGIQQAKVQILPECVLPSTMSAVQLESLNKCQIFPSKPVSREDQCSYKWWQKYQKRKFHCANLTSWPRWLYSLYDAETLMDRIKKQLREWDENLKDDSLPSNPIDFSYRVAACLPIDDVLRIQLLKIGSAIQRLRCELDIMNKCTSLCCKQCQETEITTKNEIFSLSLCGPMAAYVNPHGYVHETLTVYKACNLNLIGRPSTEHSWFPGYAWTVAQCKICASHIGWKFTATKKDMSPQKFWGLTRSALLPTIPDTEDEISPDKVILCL
Chain of Cytochrome P450 3A4 (P08684 whole entry): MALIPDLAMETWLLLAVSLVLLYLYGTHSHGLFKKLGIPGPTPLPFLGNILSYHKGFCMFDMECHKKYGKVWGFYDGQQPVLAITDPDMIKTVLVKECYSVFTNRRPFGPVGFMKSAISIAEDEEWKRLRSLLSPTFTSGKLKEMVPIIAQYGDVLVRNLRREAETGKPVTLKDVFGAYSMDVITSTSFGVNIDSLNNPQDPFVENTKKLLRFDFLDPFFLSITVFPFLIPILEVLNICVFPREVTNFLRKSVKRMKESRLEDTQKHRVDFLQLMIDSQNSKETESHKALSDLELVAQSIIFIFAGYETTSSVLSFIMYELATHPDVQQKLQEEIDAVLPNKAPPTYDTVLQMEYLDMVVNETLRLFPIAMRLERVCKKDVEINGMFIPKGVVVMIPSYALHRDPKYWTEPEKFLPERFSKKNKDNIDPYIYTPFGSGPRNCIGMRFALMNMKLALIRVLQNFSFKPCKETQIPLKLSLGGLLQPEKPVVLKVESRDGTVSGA

Compound: C[C@@H]1Cc2c(ccc3[nH]ncc23)[C@@H](c2c(F)cc(N3CCC4(CCN(C(=O)CN5Cc6cc7c(cc6C5)C(=O)N(C5CCC(=O)NC5=O)C7=O)CC4)CC3)cc2F)N1CC(F)F (some centres undefined)
- concentration at 72 h [1]: 3740 ng/mL
- bioavailability [2]: 42%
- Activity [3]: Dose-Dependent Effect
- Activity [4]: 68%
- inhibition in vivo at 30 mg/kg (MCF7 [5]): 51%
- concentration at 72 h [6]: 413 ng/mL
- half-life [7]: 7.9 h
- Cmax at 24 h (in vivo): 141 ng/mL
- Vd at 24 h [8]: 1.3 L/kg
- concentration at 72 h [9]: 433 ng/mL
- Cmax [10]: 260 ng/mL
- bioavailability [11]: 66%
- half-life [12]: 6.4 h
- inhibition in vivo at 10 mg/kg (MCF7 [13]): 72%
- IC50 (Cytochrome P450 3A4): > 10 µM
- Activity [14]: Non-Toxic
- inhibition in vivo at 10 mg/kg (MCF7 [15]): 38%
- concentration at 72 h [16]: 502 ng/mL
- Vd [17]: 5.2 L/kg
- inhibition in vivo at 30 mg/kg (MCF7 [18]): 42%
- inhibition in vivo at 30 mg/kg (MCF7 [19]): 101%
- Activity [20]: 70%
- clearance at 24 h [21]: 7.4 mL/min/kg
- AUC at 24 h [22]: 3370 ng·h/mL
- clearance [23]: 5.7 mL/min/kg
- half-life at 1 µM [24]: > 1 h
- inhibition in vivo at 30 mg/kg (MCF7 [25]): 42%
- IC50 (Cytochrome P450 1A2): > 10 µM
- Activity [26]: 66%
